pIC50: −log10 of the molar value.
target: SHP2 (Homo sapiens (Human), UniProt Q06124); test: SHP2 allosteric inhibition assay (DiFMUP prompt fluorescence); format: biochemical; details: 0.25 nM SHP2 activated with 0.5 μM peptide IRS1_pY1172(dPEG8)pY1222; substrate DiFMUP

Row | pIC50 | SMILES
1 | ≥ 7.30 | N[C@@H]1c2ccccc2CC12CCN(c1cnc3c(-c4ccncc4F)n[nH]c3n1)CC2 [Example 74]
2 | ≥ 7.30 | N[C@H]1c2ccccc2CC12CCN(c1cnc3c(-c4ccncc4F)n[nH]c3n1)CC2 [Example 75]
3 | ≥ 7.30 | N[C@@H]1c2ccccc2CC12CCN(c1ncnc3c(-c4cccc(Cl)c4Cl)csc13)CC2 [Example 76]
4 | ≥ 7.30 | Nc1nccc(-c2n[nH]c3nc(N4CCC5(CC4)Cc4ccccc4[C@@H]5N)cnc23)c1F [Example 77, (R)-1′-(3-(2-amino-3-fluoropyridin-4-yl)-1H-pyrazolo[3,4-b]pyrazin-6-yl)-1,3-dihydrospiro[indene-2,4′-piperidin]-1-amine]
5 | ≥ 7.30 | Nc1nccc(-c2n[nH]c3nc(N4CCC5(CC4)Cc4ccccc4[C@H]5N)cnc23)c1F [Example 78, (S)-1′-(3-(2-amino-3-fluoropyridin-4-yl)-1H-pyrazolo[3,4-b]pyrazin-6-yl)-1,3-dihydrospiro[indene-2,4′-piperidin]-1-amine]
6 | ≥ 7.30 | Nc1nccc(-c2n[nH]c3nc(N4CCC5(CC4)Cc4ccccc4[C@H]5N)cnc23)c1Cl [Example 79, (3S)-1′-[3-(2-amino-3-chloropyridin-4-yl)-1H-pyrazolo[3,4-b]pyrazin-6-yl]-1,3-dihydrospiro[indene-2,4′-piperidin]-3-amine]
7 | ≥ 7.30 | Nc1nccc(Sc2cnc(N3CCC4(CC3)Cc3ccccc3[C@@H]4N)cn2)c1Cl [Example 80, (R)-1′-(5-((2-amino-3-chloropyridin-4-yl)thio)pyrazin-2-yl)-1,3-dihydrospiro[indene-2,4′-piperidin]-1-amine]
8 | ≥ 7.30 | Nc1nccc(Sc2cnc(N3CCC4(CC3)Cc3ccccc3[C@H]4N)cn2)c1Cl [Example 81, (S)-1′-(5-((2-amino-3-chloropyridin-4-yl)thio)pyrazin-2-yl)-1,3-dihydrospiro[indene-2,4′-piperidin]-1-amine]
9 | ≥ 7.30 | Cc1nc(Sc2ccnc(N)c2Cl)cnc1N1CCC2(CC1)Cc1ccccc1[C@H]2N [Example 84, (S)-1′-(5-((2-amino-3-chloropyridin-4-yl)thio)-3-methylpyrazin-2-yl)-1,3-dihydrospiro[indene-2,4′-piperidin]-1-amine]
10 | ≥ 7.30 | Nc1nccc(Sc2n[nH]c3nc(N4CCC5(CC4)Cc4ccccc4[C@H]5N)cnc23)c1Cl [Example 86, (S)-1′-(3-((2-amino-3-chloropyridin-4-yl)thio)-1H-pyrazolo[3,4-b]pyrazin-6-yl)-1,3-dihydrospiro[indene-2,4′-piperidin]-1-amine]
11 | ≥ 7.30 | N[C@@H]1c2ccccc2CC12CCN(c1nc3[nH]nc(Sc4ccnc(Cl)c4Cl)c3nc1CO)CC2 [Example 88]
12 | ≥ 7.30 | Cc1nccc(Sc2n[nH]c3nc(N4CCC5(CC4)Cc4ccccc4[C@H]5N)c(CO)nc23)c1Cl [Example 89]
13 | 6.00 to 7.30 | Cc1nccc(Sc2n[nH]c3nc(N4CCC5(CC4)Cc4ccccc4[C@H]5N)cnc23)c1Cl [Example 90]
14 | 5.00 to 6.00 | N[C@@H]1c2ccccc2CC12CCN(c1cnc3c(Sc4ccnc(Cl)c4Cl)n[nH]c3n1)CC2 [Example 91]
15 | ≥ 7.30 | N[C@H]1c2ccccc2CC12CCN(c1cnc3c(Sc4ccnc(Cl)c4Cl)n[nH]c3n1)CC2 [Example 92]
16 | ≥ 7.30 | Nc1nccc(Sc2cnc(N3CCC4(CC3)Cc3ccccc3[C@H]4N)nc2)c1Cl [Example 93]
17 | ≥ 7.30 | N[C@@H]1c2ccccc2OC12CCN(c1cnc(Sc3ccnc(Cl)c3Cl)cn1)CC2 [Example 94]
18 | ≥ 7.30 | N[C@@H]1c2ccccc2OC12CCN(c1cnc(Sc3ccnc(Cl)c3F)cn1)CC2 [Example 95]
19 | ≥ 7.30 | N[C@@H]1c2ccccc2OC12CCN(c1cnc(Sc3cccnc3Cl)cn1)CC2 [Example 96]
20 | 6.00 to 7.30 | Nc1nccc(Sc2ccc(N3CCC4(CC3)Cc3ccccc3[C@H]4N)cn2)c1Cl [Example 97]

Row | SMILES | pIC50
21 | N[C@@H]1c2cccc(F)c2OC12CCN(c1cnc(Sc3ccnc(Cl)c3Cl)cn1)CC2 [Example 82, (3R)-1′-{5-[(2,3-dichloropyridin-4-yl)sulfanyl]pyrazin-2-yl}-7-fluoro-3H-spiro[1-benzofuran-2,4′-piperidin]-3-amine] | ≥ 7.30

Source: patent US10934302B1, “SHP2 phosphatase inhibitors and methods of use thereof” (Relay Therapeutics, Inc., priority 2018, dated 2021)
